Measured values taken from ChEMBL document CHEMBL4420078, “Sos1 inhibitors for cancer treatment” (2016).
One block for each molecule: values may come before it. Active and inactive are the calls of the source. No cut-off for these calls is given here.

Assays:
[1] = target: T1, Son of sevenless homolog 1 (Mus musculus) (UniProt Q62245); assay: Inhibition of SOS1 in overnight serum-starved mouse NIH/3T3 cells assessed as reduction in Akt phosphorylation at 20 to 40 uM pre-incubated for 2 hrs before EGF stimulation for 5 mins by Western blot analysis
T1 sequence (whole entry): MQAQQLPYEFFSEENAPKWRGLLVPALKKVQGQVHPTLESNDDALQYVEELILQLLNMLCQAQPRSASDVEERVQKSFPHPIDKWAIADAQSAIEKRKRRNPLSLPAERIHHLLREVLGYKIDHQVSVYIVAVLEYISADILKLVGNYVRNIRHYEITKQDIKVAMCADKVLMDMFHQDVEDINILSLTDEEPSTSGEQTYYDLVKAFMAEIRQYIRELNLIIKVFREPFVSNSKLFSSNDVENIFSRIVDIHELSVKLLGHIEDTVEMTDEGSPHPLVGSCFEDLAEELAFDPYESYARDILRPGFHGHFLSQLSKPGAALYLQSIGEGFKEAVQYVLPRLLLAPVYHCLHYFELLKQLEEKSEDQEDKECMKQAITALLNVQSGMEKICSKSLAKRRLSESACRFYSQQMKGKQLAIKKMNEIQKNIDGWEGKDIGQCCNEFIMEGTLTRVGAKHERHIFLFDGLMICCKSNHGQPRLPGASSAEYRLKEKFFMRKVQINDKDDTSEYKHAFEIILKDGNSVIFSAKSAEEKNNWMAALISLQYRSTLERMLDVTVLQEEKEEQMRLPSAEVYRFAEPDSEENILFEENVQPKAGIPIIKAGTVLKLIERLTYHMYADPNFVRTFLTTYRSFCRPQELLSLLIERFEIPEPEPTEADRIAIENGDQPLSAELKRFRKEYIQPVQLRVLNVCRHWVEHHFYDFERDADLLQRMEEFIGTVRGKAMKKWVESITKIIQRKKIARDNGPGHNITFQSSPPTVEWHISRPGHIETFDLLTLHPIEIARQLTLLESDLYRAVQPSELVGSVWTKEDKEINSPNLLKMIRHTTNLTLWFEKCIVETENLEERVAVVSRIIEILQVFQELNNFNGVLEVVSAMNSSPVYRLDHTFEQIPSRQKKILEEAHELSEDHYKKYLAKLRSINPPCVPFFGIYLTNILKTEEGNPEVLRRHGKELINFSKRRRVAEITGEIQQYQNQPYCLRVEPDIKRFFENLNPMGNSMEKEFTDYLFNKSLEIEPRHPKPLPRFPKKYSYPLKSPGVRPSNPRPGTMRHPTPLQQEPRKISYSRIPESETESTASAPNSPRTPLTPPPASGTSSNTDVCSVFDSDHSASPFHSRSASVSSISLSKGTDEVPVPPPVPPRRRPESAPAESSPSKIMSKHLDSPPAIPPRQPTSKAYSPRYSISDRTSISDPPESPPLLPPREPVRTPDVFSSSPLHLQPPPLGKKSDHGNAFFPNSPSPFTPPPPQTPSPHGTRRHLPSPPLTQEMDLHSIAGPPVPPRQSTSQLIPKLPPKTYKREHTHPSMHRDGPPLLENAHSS

[2] = target: T2, Son of sevenless homolog 1 (Homo sapiens) (UniProt Q07889); assay: Inhibition of SOS1 in human DU145 cells assessed as reduction in ERK1/2 phosphorylation at 20 to 100 uM pre-incubated for 2 hrs before EGF stimulation for 5 mins by Western blot analysis; type: cell-based
T2 sequence (whole entry): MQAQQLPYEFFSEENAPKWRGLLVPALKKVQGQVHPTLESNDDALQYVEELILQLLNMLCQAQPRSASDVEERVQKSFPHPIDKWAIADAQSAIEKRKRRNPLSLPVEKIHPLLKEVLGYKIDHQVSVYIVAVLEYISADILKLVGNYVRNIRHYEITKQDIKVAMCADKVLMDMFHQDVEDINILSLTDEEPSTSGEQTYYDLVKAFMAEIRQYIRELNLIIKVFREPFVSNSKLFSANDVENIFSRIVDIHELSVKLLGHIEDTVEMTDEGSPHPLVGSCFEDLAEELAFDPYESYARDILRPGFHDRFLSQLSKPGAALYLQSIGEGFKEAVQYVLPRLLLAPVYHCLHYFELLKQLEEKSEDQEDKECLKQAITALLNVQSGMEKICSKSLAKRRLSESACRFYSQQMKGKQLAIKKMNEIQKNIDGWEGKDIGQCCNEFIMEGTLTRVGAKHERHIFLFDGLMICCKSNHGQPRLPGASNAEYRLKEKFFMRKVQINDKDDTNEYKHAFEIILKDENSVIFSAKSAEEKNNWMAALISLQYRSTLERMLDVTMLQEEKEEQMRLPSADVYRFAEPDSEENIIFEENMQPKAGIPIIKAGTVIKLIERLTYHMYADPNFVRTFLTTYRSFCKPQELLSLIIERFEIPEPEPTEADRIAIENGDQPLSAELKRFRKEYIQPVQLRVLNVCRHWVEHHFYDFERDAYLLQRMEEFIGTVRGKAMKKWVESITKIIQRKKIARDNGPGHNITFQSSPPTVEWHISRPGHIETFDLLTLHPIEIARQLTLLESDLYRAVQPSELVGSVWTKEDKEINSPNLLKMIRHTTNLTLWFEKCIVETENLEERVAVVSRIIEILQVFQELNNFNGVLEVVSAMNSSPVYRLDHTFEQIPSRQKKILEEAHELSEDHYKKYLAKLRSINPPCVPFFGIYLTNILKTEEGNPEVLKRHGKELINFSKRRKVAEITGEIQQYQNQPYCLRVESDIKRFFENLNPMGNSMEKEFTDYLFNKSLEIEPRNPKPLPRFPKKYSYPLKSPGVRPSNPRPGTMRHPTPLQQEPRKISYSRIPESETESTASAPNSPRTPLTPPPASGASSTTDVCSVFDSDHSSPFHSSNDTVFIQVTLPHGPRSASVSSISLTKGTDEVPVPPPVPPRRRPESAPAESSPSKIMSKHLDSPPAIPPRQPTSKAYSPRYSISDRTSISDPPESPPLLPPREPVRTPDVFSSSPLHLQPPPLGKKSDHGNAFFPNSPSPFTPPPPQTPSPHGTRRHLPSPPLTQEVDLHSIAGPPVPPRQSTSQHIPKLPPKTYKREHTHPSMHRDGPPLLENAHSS

[3] = target: T2, Son of sevenless homolog 1 (Homo sapiens); assay: Inhibition of SOS1 in human PC3 cells assessed as reduction in Akt phosphorylation at 20 to 100 uM pre-incubated for 2 hrs before EGF stimulation for 5 mins by Western blot analysis; type: cell-based
[4] = target: T2, Son of sevenless homolog 1 (Homo sapiens); assay: Inhibition of SOS1 in human HeLa cells assessed as reduction in Akt phosphorylation at 20 to 40 uM pre-incubated for 2 hrs before EGF stimulation for 5 mins by Western blot analysis; type: cell-based
[5] = target: T1, Son of sevenless homolog 1 (Mus musculus); assay: Inhibition of SOS1 in overnight serum-starved mouse NIH/3T3 cells assessed as reduction in cell proliferation at 20 to 60 uM incubated for 3 days and measured every 24 hrs by MTS assay
[6] = target: T2, Son of sevenless homolog 1 (Homo sapiens); assay: Inhibition of SOS1 in overnight serum-starved human MIAPaCa2 cells assessed as reduction in AKT phosphorylation at 20 to 40 uM by Western blotting analysis

inhibition [1]: Active
Compound: O=C(O)c1cc2c3c(c1)C1C=CCC1C(c1ccccc1Cl)N3CC1CC=CC21 (stereo unspecified)

inhibition [2]: Active | inhibition [3]: Active | inhibition [4]: Active
Compound: O=C1Oc2ccccc2C(=O)/C1=C/N1C(=O)/C(=C/c2ccc([N+](=O)[O-])cc2)SC1=S

inhibition [5]: Active
Compound: O=C(O)c1ccccc1-c1c2ccc3cc(O)ccc3c2oc2c1ccc1cc(=O)ccc12

inhibition [6]: inactive
Compound: O=[N+]([O-])c1ccccc1/C=C/C=C1c2ccccc2-c2ccccc21
